Laboratory results as given in ChEMBL document CHEMBL1127021, “Structure-activity relationship of a series of phenylureas linked to 4-phenylimidazole. Novel potent inhibitors of acyl-CoA:cholesterol O-acyltransferase with antiatherosclerotic activity. 2” (J Med Chem, 1993).

How the values were obtained:
Rattus norvegicus [1] = species on record: Rattus norvegicus; assay: Tested for hypocholesterolemic activity required to decrease serum total cholesterol; type: functional
Rattus norvegicus [2] = assay: Cholesterol lowering activity in rats after a dose of 1 mg/kg once a day for 2 days; type: functional
O-acyltransferase [3] = biological target: T1, O-acyltransferase (Oryctolagus cuniculus, UniProt G1SFD9); assay: Inhibition against acyl coenzyme A:cholesterol acyltransferase derived from rabbit intestine microsomes
[4] = biological target: T2, Acyl-CoA:cholesterol acyltransferase (Oryctolagus cuniculus, UniProt Q95214); assay: Inhibition against acyl coenzyme A:cholesterol acyltransferase derived from rabbit aorta homogenate; type: tissue-based
T2 sequence (Q95214 whole entry): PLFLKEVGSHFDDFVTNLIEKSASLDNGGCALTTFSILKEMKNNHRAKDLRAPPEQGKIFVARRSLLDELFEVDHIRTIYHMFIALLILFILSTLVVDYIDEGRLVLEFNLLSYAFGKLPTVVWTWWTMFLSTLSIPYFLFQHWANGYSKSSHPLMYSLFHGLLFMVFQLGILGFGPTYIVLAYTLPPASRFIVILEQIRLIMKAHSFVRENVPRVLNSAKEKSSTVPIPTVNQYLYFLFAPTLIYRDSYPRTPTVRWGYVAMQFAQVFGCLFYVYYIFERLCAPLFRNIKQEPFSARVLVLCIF

Rattus norvegicus [5] = assay: Cholesterol lowering activity in rats after a dose of 4 mg/kg once a day for 2 days; type: functional
Rattus norvegicus [6] = assay: Tested for cholesterol lowering activity in rats after a dose of 4 mg/kg once a day for 2 days (at a dose of 1 mg/kg once a day for 2 days); type: functional
[7] = biological target: T2, Acyl-CoA:cholesterol acyltransferase; assay: Tested for inhibition against Acyl coenzyme A:cholesterol acyltransferase derived from rabbit aorta homogenate (>, denotes no effect at the concentration indicated)
O-acyltransferase [8] = biological target: T1, O-acyltransferase; assay: Tested for inhibition against Acyl coenzyme A:cholesterol acyltransferase derived from rabbit intestine microsomes (>, denotes no effect at the concentration indicated)

T1 sequence (G1SFD9 1-524): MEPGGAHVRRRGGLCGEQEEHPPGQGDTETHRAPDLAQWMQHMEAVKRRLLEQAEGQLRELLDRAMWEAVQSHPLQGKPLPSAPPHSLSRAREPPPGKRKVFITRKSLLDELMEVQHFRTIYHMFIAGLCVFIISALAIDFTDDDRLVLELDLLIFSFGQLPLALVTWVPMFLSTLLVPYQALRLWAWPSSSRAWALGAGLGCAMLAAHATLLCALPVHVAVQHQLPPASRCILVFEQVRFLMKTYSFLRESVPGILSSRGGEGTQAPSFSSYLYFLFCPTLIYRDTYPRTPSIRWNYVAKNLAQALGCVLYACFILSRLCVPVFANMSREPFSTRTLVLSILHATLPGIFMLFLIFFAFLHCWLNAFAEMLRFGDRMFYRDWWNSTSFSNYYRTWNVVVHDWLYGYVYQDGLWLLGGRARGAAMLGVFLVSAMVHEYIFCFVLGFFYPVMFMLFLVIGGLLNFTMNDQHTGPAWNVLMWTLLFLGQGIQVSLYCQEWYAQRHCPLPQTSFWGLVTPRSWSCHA

IC50 (O-acyltransferase [3]) [nM]	IC50 [4] [nM]	IC50 [7] [nM]	IC50 (O-acyltransferase [8]) [nM]	SMILES	ED30 (Rattus norvegicus [1]) [mg/kg]	Cholesterol reduction (Rattus norvegicus [2]) [%]	Cholesterol reduction (Rattus norvegicus [5]) [%]	Cholesterol reduction (Rattus norvegicus [6]) [%]
130	12	–	–	CCCCNC(=O)Nc1c(C)cccc1OCCCn1cnc(-c2ccccc2)c1C(C)C	0.4	-52	–	–
180	> 1000	–	–	CCCCCNC(=O)Nc1c(C)cccc1OCCCn1cnc(-c2ccccc2)c1C(N)=O	–	-20	–	–
230	370	–	–	Cc1cccc(OCCCn2cnc(-c3ccccc3)c2)c1NC(=O)NCCC(C)C	–	-41	–	–
170	98	–	–	CCCCCNC(=O)Nc1c(CCC)cccc1OCCCn1cnc(-c2ccccc2)c1C	–	-34	-50	–
260	100	–	–	CCCCCNC(=O)Nc1c(C)cccc1OCCCn1cnc(-c2ccccc2C)c1	–	-25	-48	–
160	63	–	–	CCCCCNC(=O)Nc1c(C)cccc1OCCCn1cnc(-c2ccccc2)c1CCC	–	-49	-56	–
50	120	–	–	CCCCCNC(=O)Nc1c(C)cccc1OCCCn1cnc(-c2ccccc2)c1C	–	-38	–	-51
84	68	–	–	CCCCCCNC(=O)Nc1c(C)cccc1OCCCn1cnc(-c2ccccc2)c1C	–	-43	-46	–
340	–	> 1000	–	CCOCCNC(=O)Nc1c(C)cccc1OCCCn1cnc(-c2ccccc2)c1C	–	–	–	–
71	45	–	–	CCCCCNC(=O)Nc1c(OCCCn2cnc(-c3ccccc3)c2C)cccc1C(C)C	–	-40	-59	–
300	–	> 1000	–	COCCCNC(=O)Nc1c(C)cccc1OCCCn1cnc(-c2ccccc2)c1C	–	–	–	–
320	73	–	–	Cc1cccc(OCCCn2cnc(-c3ccccc3)c2)c1NC(=O)NCC(C)(C)C	–	-46	–	–
70	560	–	–	CCCCCNC(=O)Nc1c(C)cccc1OCCCn1cnc(-c2ccc([N+](=O)[O-])cc2)c1	–	-31	-33	–
120	260	–	–	CCCCCNC(=O)Nc1c(C)cccc1OCCCn1cnc(-c2ccc(Cl)cc2)c1	–	-43	-59	–
290	120	–	–	CCCCCNC(=O)Nc1c(C)cccc1OCCCn1cnc(-c2ccc(F)cc2F)c1	–	-23	-48	–
210	140	–	–	Cc1cccc(OCCCn2cnc(-c3ccccc3)c2C)c1NC(=O)NCC(C)(C)C	–	-64	–	–
–	3300	–	> 1000	CCCCCNC(=O)Nc1c(CO)cccc1OCCCn1cnc(-c2ccccc2)c1C	–	–	–	–
880	100	–	–	CCCCCNC(=O)Nc1c(C)cccc1COCCn1cnc(-c2ccccc2)c1C	–	–	2	–
–	160	–	–	CCCCNC(=O)Nc1c(C)cccc1OCCCn1cnc(-c2ccccc2)c1CC	0.5	-46	–	–
–	–	–	–	CCCCCNC(=O)Nc1c(OCCCn2cnc(-c3ccccc3)c2C)cccc1N(C)C	1.9	–	-42	–
130	290	–	–	CCCCCNC(=O)Nc1c(C)cccc1OCCCn1cnc(-c2cccc([N+](=O)[O-])c2)c1	–	-15	–	–
55	210	–	–	CCCCNC(=O)Nc1c(C)cccc1OCCCn1cnc(-c2ccccc2)c1Cl	–	-40	–	–
230	190	–	–	Cc1cccc(OCCCn2cnc(-c3ccccc3)c2CO)c1NC(=O)NCCC(C)C	–	-52	–	–
–	–	–	–	CCCCCCCN(Cc1ccc(CC(C)(C)C)cc1)C(=O)Nc1ccc(F)cc1F [CL-277082]	1.5	–	–	–

IC50 (O-acyltransferase [3]) [nM]	IC50 [4] [nM]	IC50 [7] [nM]	IC50 (O-acyltransferase [8]) [nM]	SMILES	ED30 (Rattus norvegicus [1]) [mg/kg]	Cholesterol reduction (Rattus norvegicus [2]) [%]	Cholesterol reduction (Rattus norvegicus [5]) [%]	Cholesterol reduction (Rattus norvegicus [6]) [%]
460	68	–	–	CCc1c(-c2ccccc2)ncn1CCCOc1cccc(C)c1NC(=O)NCC(C)(C)C	–	-55	–	–
210	170	–	–	CCCCCNC(=O)Nc1c(C)cccc1OCCCn1cnc(-c2ccccc2[N+](=O)[O-])c1	–	-46	-66	–
100	180	–	–	Cc1cccc(OCCCn2cnc(-c3ccccc3)c2C)c1NC(=O)NC1CCCCC1	–	-42	-53	–
160	170	–	–	CCCCCNC(=O)Nc1c(C)cccc1OCC(O)Cn1cnc(-c2ccccc2)c1C (stereo not drawn)	–	–	-43	–
97	280	–	–	CCCCCNC(=O)Nc1c(C)cccc1C(=O)NCCn1cnc(-c2ccccc2)c1C	–	–	-25	–
80	44	–	–	CCCCCNC(=O)Nc1c(CC)cccc1OCCCn1cnc(-c2ccccc2)c1C	–	-51	-60	–
670	310	–	–	CCCCCNC(=O)Nc1c(C)cccc1OCCCn1cnc(-c2ccccc2)c1CN(C)C	–	–	-10	–
540	120	–	–	CCCCCNC(=O)Nc1c(C)cccc1OCCCn1cnc(-c2ccccc2)c1CSC	–	-20	-33	–
190	590	–	–	CCCCNC(=O)Nc1c(C)cccc1OCCCn1cnc(-c2ccccc2)c1CO	–	-21	–	–
–	310	–	–	CCCCNC(=O)Nc1c(C)cccc1OCCCn1cnc(-c2ccccc2)c1	–	-7	–	–
220	72	–	–	CCc1c(-c2ccccc2)ncn1CCCOc1cccc(C)c1NC(=O)NCCC(C)C	–	-46	–	–
250	310	–	–	CCCCCNC(=O)Nc1c(C)cccc1OCCCn1cnc(-c2ccccc2)c1	–	-28	-52	–
77	86	–	–	CCCCCNC(=O)Nc1c(C)cccc1SCCCn1cnc(-c2ccccc2)c1C	–	–	-7	–
170	79	–	–	CCCCCNC(=O)Nc1c(C)cccc1OCCCn1cnc(-c2ccccc2)c1CC	–	-28	-49	–
140	100	–	–	Cc1cccc(OCCCn2cnc(-c3ccccc3)c2C)c1NC(=O)NCCC(C)C	–	-59	-63	–
180	31	–	–	CCCCCNC(=O)Nc1c(C)cccc1OCCCn1cnc(-c2ccccc2)c1C(C)C	–	-30	-49	–
220	220	–	–	CCCCCNC(=O)Nc1c(C)cccc1OCCCn1cnc2c1CCc1ccccc1-2	–	-30	-56	–
140	88	–	–	Cc1cccc(OCCCn2cnc(-c3ccccc3)c2Cl)c1NC(=O)NCCC(C)C	–	-59	–	–
73	480	–	–	CCCCNC(=O)Nc1c(C)cccc1OCCCn1cnc(-c2ccccc2)c1C	–	-34	-45	–
280	19	–	–	Cc1cccc(OCCCn2cnc(-c3ccccc3)c2C(C)C)c1NC(=O)NCCC(C)C	–	-40	–	–
200	48	–	–	Cc1cccc(OCCCn2cnc(-c3ccccc3)c2Cl)c1NC(=O)NCC(C)(C)C	–	-43	–	–
480	290	–	–	CCCCCNC(=O)Nc1c(C)cccc1OCCCn1cnc(-c2ccccc2)c1COC	–	18	-47	–
210	200	–	–	CCCCCNC(=O)Nc1c(C)cccc1OCCCn1cnc(-c2ccccc2)c1CO	–	-29	-55	–
–	84	–	–	CCCCCNC(=O)Nc1c(C)cccc1OCCCn1cnc(-c2ccccc2)c1Cl	–	-41	–	–
